Experimental data published in article PMC4853780, “HpDTC1, a Stress-Inducible Bifunctional Diterpene Cyclase Involved in Momilactone Biosynthesis, Functions in Chemical Defence in the Moss Hypnum plumaeforme” (Scientific Reports, 2016).

Assays:
Format in all cases: biochemical
HpDTC1 [1] = target: T1, HpDTC1 (Calohypnum plumiforme, UniProt A0A173M1U8); assay: GC-MS of reaction product; details: product syn-pimara-7,15-diene
T1 construct: His6-tag, pCold I, E. coli M-15

OsCPS4 = target: T2, OsCPS4 (Oryza sativa, UniProt Q0JF02); assay: GC-MS of product after dephosphorylation; details: product syn-CDP, detected as syn-copalol after calf intestinal alkaline phosphatase
T2 construct: gene CPS4; enzyme preparation not described in main text

HpDTC1 [2] = target: T3, HpDTC1 (Calohypnum plumiforme, UniProt A0A173M1U8, D394G/D395G); assay: GC-MS of product, co-incubation with OsCPS4; details: syn-CDP formed in situ from GGDP by OsCPS4; type A activity; product syn-pimara-7,15-diene
T3 construct: His6-tag, pCold I, E. coli M-15
T3 sequence (A0A173M1U8 entry or part of it D394G/D395G): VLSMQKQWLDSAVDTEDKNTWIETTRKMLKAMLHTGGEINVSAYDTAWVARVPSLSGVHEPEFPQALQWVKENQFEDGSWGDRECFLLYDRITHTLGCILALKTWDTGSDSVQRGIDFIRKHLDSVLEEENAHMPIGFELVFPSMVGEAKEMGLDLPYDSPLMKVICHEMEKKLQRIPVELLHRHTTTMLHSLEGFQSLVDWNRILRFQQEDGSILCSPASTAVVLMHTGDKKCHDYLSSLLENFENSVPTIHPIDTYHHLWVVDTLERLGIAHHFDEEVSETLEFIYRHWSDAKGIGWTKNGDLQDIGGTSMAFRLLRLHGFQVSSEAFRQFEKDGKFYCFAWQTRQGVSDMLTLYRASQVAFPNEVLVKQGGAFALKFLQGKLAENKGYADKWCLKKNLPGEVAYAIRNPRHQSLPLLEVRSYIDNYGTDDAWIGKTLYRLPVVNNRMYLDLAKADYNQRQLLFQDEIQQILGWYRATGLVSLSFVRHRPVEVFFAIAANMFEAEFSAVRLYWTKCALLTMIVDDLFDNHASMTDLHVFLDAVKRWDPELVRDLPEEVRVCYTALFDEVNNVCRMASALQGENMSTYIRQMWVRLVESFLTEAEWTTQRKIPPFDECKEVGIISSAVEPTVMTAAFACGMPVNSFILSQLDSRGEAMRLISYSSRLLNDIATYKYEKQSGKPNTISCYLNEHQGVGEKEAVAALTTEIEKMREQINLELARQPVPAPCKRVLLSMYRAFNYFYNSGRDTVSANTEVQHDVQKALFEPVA

T2 sequence (Q0JF02 48-767): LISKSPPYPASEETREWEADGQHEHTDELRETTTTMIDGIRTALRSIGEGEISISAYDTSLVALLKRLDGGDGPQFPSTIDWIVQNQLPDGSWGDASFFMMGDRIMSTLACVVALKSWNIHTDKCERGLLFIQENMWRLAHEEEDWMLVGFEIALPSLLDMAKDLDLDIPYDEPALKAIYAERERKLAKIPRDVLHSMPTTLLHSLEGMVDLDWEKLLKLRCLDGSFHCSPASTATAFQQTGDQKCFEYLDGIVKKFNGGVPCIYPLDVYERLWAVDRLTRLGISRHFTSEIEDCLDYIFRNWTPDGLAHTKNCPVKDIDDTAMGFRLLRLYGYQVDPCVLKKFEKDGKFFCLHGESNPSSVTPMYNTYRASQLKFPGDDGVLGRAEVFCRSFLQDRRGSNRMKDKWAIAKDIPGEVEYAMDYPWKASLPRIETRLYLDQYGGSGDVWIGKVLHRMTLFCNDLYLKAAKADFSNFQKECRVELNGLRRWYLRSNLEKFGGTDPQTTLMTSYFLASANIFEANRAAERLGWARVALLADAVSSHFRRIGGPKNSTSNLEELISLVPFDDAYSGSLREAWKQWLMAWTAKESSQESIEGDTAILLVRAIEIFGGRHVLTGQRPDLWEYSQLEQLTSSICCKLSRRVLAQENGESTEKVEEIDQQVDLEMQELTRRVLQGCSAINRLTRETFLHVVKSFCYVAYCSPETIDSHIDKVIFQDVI
T1 sequence (A0A173M1U8 entry or part of it): as the sequence (A0A173M1U8 entry or part of it D394G/D395G) above, with G309D, G310D counted along it

Row | SMILES | GC-MS of reaction product (HpDTC1 [1]) | GC-MS of product after dephosphorylation (OsCPS4) | GC-MS of product, co-incubation with OsCPS4 (HpDTC1 [2])
1 | CC(C)=CCC/C(C)=C/CC/C(C)=C/CC/C(C)=C/COP(=O)(O)OP(=O)(O)O [GGDP] | used for the enzyme assay using GGDP as a substrate | syn-copalol derived from syn-CDP, product of OsCPS4 | 
2 | C=C1CC[C@H]2C(C)(C)CCC[C@]2(C)[C@@H]1CC/C(C)=C/COP(=O)(O)OP(=O)(O)O [syn-CDP] |  |  | Co-incubation with OsCPS4 and the type B mutant of HpDTC1 (DIGG) complemented the impaired
